How the values were obtained:
[1] = biological target: T1, truncated human 11β-HSD-1 enzyme (24-287AA) (Homo sapiens, UniProt P28845); assay: 11β-HSD-1 enzymatic Scintillation Proximity Assay (SPA); assay type: biochemical
T1 construct: truncated human 11β-HSD-1 enzyme (24-287AA); made in house; host or cells: E. coli (crude lysate)
Experimental: (§1) The reaction was stopped by adding a non-specific 11β-HSD inhibitor, 18β-glycyrrhetinic acid. The tritiated cortisol was captured by a mixture of an anti-cortisol monoclonal antibody and SPA beads coated with anti-mouse antibodies. The reaction plate was shaken at room temperature and the radioactivity bound to SPA beads was then measured on a β-scintillation counter. The 11-βHSD-1 assay was carried out in 96-well microtiter plates in a total volume of 220 μl. […] In order to drive the reaction in the forward direction, 1 mM G-6-P was also added. Solid compound was dissolved in DMSO to make a 10 mM stock followed by a subsequent 10-fold dilution with 3% DMSO in Tris/EDTA buffer (pH 7.4). […] Reactions were initiated by the addition of 10 μl of 0.1 mg/ml E. coli lysates overexpressing 11β-HSD-1 enzyme. After shaking and incubating plates for 30 minutes at room temperature, reactions were stopped by adding 10 μl of 1 mM glycyrrhetinic acid. The product, tritiated cortisol, was captured by adding 10 μl of […] monoclonal anti-cortisol antibodies and 100 μl SPA beads coated with anti-mouse antibodies. After shaking for 30 minutes, plates were read on a liquid scintillation counter Topcount. Percent inhibition was calculated based on the background and the maximal signal. Wells that contained substrate without compound or enzyme were used as the background, while the wells that contained substrate and enzyme without any compound were considered as maximal signal. Percent of inhibition of each compound was calculated relative to the maximal signal and IC50 curves were generated. This assay was applied to 11β-HSD-2 as well, whereby tritiated cortisol and NAD^+ were used as substrate and cofactor, respectively.

[2] = Metabolic stability screen, human liver microsomes; assay type: in vitro ADME; settings: 10 μM substrate, 30 min incubation, 37° C., 1 mM NADPH
Experimental: (§2) Metabolic stability screen: each substrate (10 μM) was incubated with microsomal protein (0.1-0.5 mg/ml) in 50 mM potassium phosphate buffer (pH 7.4) in 48-Well plate. The enzyme reaction was initiated by the addition of 1 mM NADPH, then incubated at 37° C. in a Form a Scientific incubator (Marietta, Ohio, USA) with gentle shaking. The reactions were quenched by the addition of 800 μl of ACN/MeOH (1:1, v/v), containing 0.5 μM of internal standard (IS), after 30 min incubation. Samples were then filtered by using Captiva 96-Well Filtration (Varian, Lake Forest, Calif., USA) and analyzed by LC/MS (mass spectrometry). Liver microsomal incubations were conducted in duplicate.
(§3) The parent remaining in the incubation mixture was determined by LC/MS. The LC/MS system consisted of an Agilent 1100 series (Agilent Technologies, Waldbronn, Germany) and API 2000 (MDS SCIEX, Ontario, Canada). A Luna C8(2) (50×2.0 mm, particle size 3 μm, Phenomenex, Torrance, Calif., USA) was used to quantify each compound at ambient temperature. The mobile phase consisted of (A): 10 mM NH4AC (pH 3.3) and (B): 100% ACN and was delivered at a flow rate of 0.2 ml/min. Elution was achieved using a linear gradient of 0-100% B over 3 min, then held 100% B for 4 min and returned to 100% A in 1 min. The column was equilibrated for 7 min before the next injection.
(§4) The peak area ratios (each substrate over IS) at each incubation time were expressed as the percentage of the ratios (each substrate over IS) of the control samples (0 min incubation). The parent remaining in the incubation mixture was expressed as the percentage of the values at 0 min incubation. The percentage turnover is calculated using the following equation (% turnover=100% turnover−% parent remaining) and is recorded as the percentage turnover in the Table 2.

[3] = Metabolic stability screen, mouse liver microsomes; assay type: in vitro ADME; settings: 10 μM substrate, 30 min incubation, 37° C., 1 mM NADPH
Experimental: as §2, §3, §4

[4] = system: CD-1 mice; assay: 24-hour inhibitory avoidance in mice after subchronic (3 administration) dosing; assay type: in vivo; settings: 30 mg/kg PO, BID the day before and one hour before training, vs vehicle control mice
Experimental: Male CD-1 mice were obtained from Charles River, Wilmington, Mass. Mice were group-housed 10 per cage. The body weight upon arrival was 20-25 g. Food and water were available ad libitum except during experiments. Animals were acclimated to the animal facilities for a period of at least one week prior to commencement of experiments. Animals were tested in the light phase of a 12-hour light: 12-hour dark schedule (lights on 0600 hours).
Compound KK and Compound LL were synthesized at Abbott Laboratories. […] Compound KK was administered in a cloudy, fine suspension, while Compound LL was administered in a solution.
On training day, mice were injected with Compound KK, Compound LL or vehicle one-hour PO before training. One hour following injection (start of training) mice were subjected to a training session in which they were placed in a lighted compartment of a two-compartment chamber (Gemini apparatus, San Diego Instruments, San Diego, Calif.) with a manually operated gate separating the compartments. […] Twenty-four hours later mice were again tested in the same apparatus, except without shock, and the transfer latency from the lighted to the dark compartment recorded and used as an index of memory for the punished response 24 hours earlier. […] Data were analyzed using Mann Whitney U comparisons. […]

[5] = biological target: T2, human 11-β-HSD-2 (Homo sapiens, UniProt P80365); assay: 11β-HSD-2 Scintillation Proximity Assay (tritiated cortisol, NAD+); assay type: biochemical; settings: human enzyme, SPA
T2 sequence (P80365 1-405): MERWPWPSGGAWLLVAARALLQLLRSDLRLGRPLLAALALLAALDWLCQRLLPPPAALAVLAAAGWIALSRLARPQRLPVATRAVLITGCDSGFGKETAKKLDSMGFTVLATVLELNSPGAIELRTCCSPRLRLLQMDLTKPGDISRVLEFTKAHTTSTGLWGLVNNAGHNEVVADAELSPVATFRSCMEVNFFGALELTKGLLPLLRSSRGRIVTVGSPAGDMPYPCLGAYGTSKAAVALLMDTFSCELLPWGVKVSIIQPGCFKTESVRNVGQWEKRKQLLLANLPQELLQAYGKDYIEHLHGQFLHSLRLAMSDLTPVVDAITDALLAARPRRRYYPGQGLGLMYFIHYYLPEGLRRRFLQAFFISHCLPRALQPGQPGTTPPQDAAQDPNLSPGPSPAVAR
Experimental: as §1

T1 sequence (P28845 24-287): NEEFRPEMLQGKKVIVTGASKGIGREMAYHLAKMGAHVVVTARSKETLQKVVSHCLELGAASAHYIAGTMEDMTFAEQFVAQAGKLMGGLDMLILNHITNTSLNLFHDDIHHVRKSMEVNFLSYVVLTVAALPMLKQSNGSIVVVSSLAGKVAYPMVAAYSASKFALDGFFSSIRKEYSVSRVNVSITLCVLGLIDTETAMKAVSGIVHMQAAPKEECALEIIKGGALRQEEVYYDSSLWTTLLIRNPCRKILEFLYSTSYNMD

Row | Compound | IC50 [1] | Human Liver Microsomal Turnover (%) [2] | Mouse Liver Microsomal Turnover (%) [3] | IC50 [5] | memory retention (transfer latency), FIG. 3 [4]
1 | O=C(O)C12CC3CC(C1)C(NC(=O)C1(c4ccccc4)CC1)C(C3)C2 (stereo not shown) [B, E-4-[(1-Phenyl-cyclopropanecarbonyl)-amino]-adamantane-1-carboxylic acid] | 102 nM | 2% | 0% | – | –
2 | CC1(C(=O)N[C@@H]2[C@@H]3C[C@@H]4C[C@H]2C[C@@](C(N)=O)(C4)C3)CCN(Cc2ccccc2)C1=O (stereo partly shown) [BB] | – | – | – | – | significant improvement in memory retention
3 | CC(C)(C(=O)N[C@@H]1[C@@H]2C[C@@H]3C[C@H]1C[C@@](C(=O)O)(C3)C2)c1ccccc1 [C, E-4-(2-Methyl-2-phenyl-propionylamino)-adamantane-1-carboxylic acid] | 82 nM | 0% | 0% | > 10000 nM | –
4 | O=C(O)C12CC3CC(C1)C(NC(=O)C1(c4ccc(Cl)cc4)CCC1)C(C3)C2 (stereo not shown) [Compound A, E-4-{[1-(4-Chloro-phenyl)-cyclobutanecarbonyl]-amino}-adamantane-1-carboxylic acid] | 43 nM | 5% | 5% | > 10000 nM | –
5 | Cc1ccccc1CN1CCCC(C)(C(=O)NC2C3CC4CC2CC(C(N)=O)(C4)C3)C1=O (stereo not shown) [Compound AA] | – | – | – | – | significant improvement in memory retention

More lines, main results first:

Row | IC50 [1] | Human Liver Microsomal Turnover (%) [2] | Mouse Liver Microsomal Turnover (%) [3] | IC50 [5] | Compound | memory retention (transfer latency), FIG. 3 [4]
6 | – | 10% | – | – | NC(=O)C12CC3CC(C1)C(NC(=O)C1(c4ccc(Cl)cc4)CCC1)C(C3)C2 (stereo not shown) [D, E-4-{[1-(4-Chloro-phenyl)-cyclobutanecarbonyl]-amino}-adamantane-1-carboxylic acid amide] | –
7 | – | 83% | – | – | CC(C)(C(=O)NC1C2CC3CC(C2)CC1C3)c1ccccc1 (stereo not shown) [E, N-2-adamantyl-2-methyl-2-phenylpropanamide] | –
8 | – | 62% | – | – | O=C(NC1C2CC3CC(C2)CC1C3)C1(c2ccccc2)CC1 (stereo not shown) [F, N-2-adamantyl-1-phenylcyclopropanecarboxamide] | –

From patent US8993632B2, “Inhibitors of the 11-beta-hydroxysteroid dehydrogenase type 1 enzyme” (AbbVie Inc., priority 2005, dated 2015)
